Measured values published in article PMC9506414, “Novel 2,6,9-Trisubstituted Purines as Potent CDK Inhibitors Alleviating Trastuzumab-Resistance of HER2-Positive Breast Cancers” (Pharmaceuticals, 2022).

What was measured:
MKK6 = biological target: T1, MKK6 (Homo sapiens, UniProt P52564); assay: Kinome-wide inhibition profiling; type: biochemical
T1 construct: purchased Reaction Biology Corp
Method: (§1) In vitro CDK12/cyclinK assays for all compounds and in vitro kinome-wide inhibition profiling of 30d at 10 μM were performed by a CRO company (Reaction Biology Corp., San Diego, CA, USA).

YSK4 = biological target: T2, YSK4 (Homo sapiens, UniProt Q56UN5); assay: Kinome-wide inhibition profiling; type: biochemical
T2 construct: purchased Reaction Biology Corp
Method: as §1

MAP3K8 = biological target: T3, MAP3K8 (Homo sapiens, UniProt P41279); assay: Kinome-wide inhibition profiling; type: biochemical
T3 construct: purchased Reaction Biology Corp
Method: as §1

PAK6 = biological target: T4, PAK6 (Homo sapiens, UniProt Q9NQU5); assay: Kinome-wide inhibition profiling; type: biochemical
T4 construct: purchased Reaction Biology Corp
Method: as §1

PRKG1b = biological target: T5, PRKG1b (Homo sapiens, UniProt Q13976); assay: Kinome-wide inhibition profiling; type: biochemical
T5 construct: purchased Reaction Biology Corp
Method: as §1

[1] = biological target: T6, RPS6KA4(Kin.Dom.1-N-term) (Homo sapiens, UniProt O75676); assay: Kinome-wide inhibition profiling; type: biochemical
T6 construct: RPS6KA4(Kin.Dom.1-N-term); purchased Reaction Biology Corp
Method: as §1

PBK/TOPK = biological target: T7, PBK/TOPK (Homo sapiens, UniProt Q96KB5); assay: Kinome-wide inhibition profiling; type: biochemical
T7 construct: purchased Reaction Biology Corp
Method: as §1

BMPR1B = biological target: T8, BMPR1B (Homo sapiens, UniProt O00238); assay: Kinome-wide inhibition profiling; type: biochemical
T8 construct: purchased Reaction Biology Corp
Method: as §1

QSK = biological target: T9, QSK (Homo sapiens, UniProt Q9Y2K2); assay: Kinome-wide inhibition profiling; type: biochemical
T9 construct: purchased Reaction Biology Corp
Method: as §1

EPHB3 = biological target: T10, EPHB3 (Homo sapiens, UniProt P54753); assay: Kinome-wide inhibition profiling; type: biochemical
T10 construct: purchased Reaction Biology Corp
Method: as §1

PRKCD = biological target: T11, PRKCD (Homo sapiens, UniProt Q05655); assay: Kinome-wide inhibition profiling; type: biochemical
T11 construct: purchased Reaction Biology Corp
Method: as §1

TGFBR2 = biological target: T12, TGFBR2 (Homo sapiens, UniProt P37173); assay: Kinome-wide inhibition profiling; type: biochemical
T12 construct: purchased Reaction Biology Corp
Method: as §1

CHEK2 = biological target: T13, CHEK2 (Homo sapiens, UniProt O96017); assay: Kinome-wide inhibition profiling; type: biochemical
T13 construct: purchased Reaction Biology Corp
Method: as §1

RAF1 = biological target: T14, RAF1 (Homo sapiens, UniProt P04049); assay: Kinome-wide inhibition profiling; type: biochemical
T14 construct: purchased Reaction Biology Corp
Method: as §1

CDK3/cyclinE = biological target: T15, CDK3/cyclinE (Homo sapiens, UniProt Q00526); assay: Kinome-wide inhibition profiling; type: biochemical
T15 construct: purchased Reaction Biology Corp
Method: as §1

NEK1 = biological target: T16, NEK1 (Homo sapiens, UniProt Q96PY6); assay: Kinome-wide inhibition profiling; type: biochemical
T16 construct: purchased Reaction Biology Corp
Method: as §1

CLK2 = biological target: T17, CLK2 (Homo sapiens, UniProt P49760); assay: Kinome-wide inhibition profiling; type: biochemical
T17 construct: purchased Reaction Biology Corp
Method: as §1

MERTK = biological target: T18, MERTK (Homo sapiens, UniProt Q12866); assay: Kinome-wide inhibition profiling; type: biochemical
T18 construct: purchased Reaction Biology Corp
Method: as §1

MASTL = biological target: T19, MASTL (Homo sapiens, UniProt Q96GX5); assay: Kinome-wide inhibition profiling; type: biochemical
T19 construct: purchased Reaction Biology Corp
Method: as §1

PRKCG = biological target: T20, PRKCG (Homo sapiens, UniProt P05129); assay: Kinome-wide inhibition profiling; type: biochemical
T20 construct: purchased Reaction Biology Corp
Method: as §1

MYLK3 = biological target: T21, MYLK3 (Homo sapiens, UniProt Q32MK0); assay: Kinome-wide inhibition profiling; type: biochemical
T21 construct: purchased Reaction Biology Corp
Method: as §1

EGFR = biological target: T22, EGFR (Homo sapiens, UniProt P00533); assay: Kinome-wide inhibition profiling; type: biochemical
T22 construct: purchased Reaction Biology Corp
Method: as §1

ZAK = biological target: T23, ZAK (Homo sapiens, UniProt Q9NYL2); assay: Kinome-wide inhibition profiling; type: biochemical
T23 construct: purchased Reaction Biology Corp
Method: as §1

PLK4 = biological target: T24, PLK4 (Homo sapiens, UniProt O00444); assay: Kinome-wide inhibition profiling; type: biochemical
T24 construct: purchased Reaction Biology Corp
Method: as §1

CDK4/cyclinD3 = biological target: T25, CDK4/cyclinD3 (Homo sapiens, UniProt P11802); assay: Kinome-wide inhibition profiling; type: biochemical
T25 construct: purchased Reaction Biology Corp
Method: as §1

EPHB4 = biological target: T26, EPHB4 (Homo sapiens, UniProt P54760); assay: Kinome-wide inhibition profiling; type: biochemical
T26 construct: purchased Reaction Biology Corp
Method: as §1

MAPKAPK3 = biological target: T27, MAPKAPK3 (Homo sapiens, UniProt Q16644); assay: Kinome-wide inhibition profiling; type: biochemical
T27 construct: purchased Reaction Biology Corp
Method: as §1

ULK3 = biological target: T28, ULK3 (Homo sapiens, UniProt Q6PHR2); assay: Kinome-wide inhibition profiling; type: biochemical
T28 construct: purchased Reaction Biology Corp
Method: as §1

MLK2 = biological target: T29, MLK2 (Homo sapiens, UniProt Q02779); assay: Kinome-wide inhibition profiling; type: biochemical
T29 construct: purchased Reaction Biology Corp
Method: as §1

CSNK1G3 = biological target: T30, CSNK1G3 (Homo sapiens, UniProt Q9Y6M4); assay: Kinome-wide inhibition profiling; type: biochemical
T30 construct: purchased Reaction Biology Corp
Method: as §1

AurkA = biological target: T31, AurkA (Homo sapiens, UniProt O14965); assay: Kinome-wide inhibition profiling; type: biochemical
T31 construct: purchased Reaction Biology Corp
Method: as §1

TLK1 = biological target: T32, TLK1 (Homo sapiens, UniProt Q9UKI8); assay: Kinome-wide inhibition profiling; type: biochemical
T32 construct: purchased Reaction Biology Corp
Method: as §1

ITK = biological target: T33, ITK (Homo sapiens, UniProt Q08881); assay: Kinome-wide inhibition profiling; type: biochemical
T33 construct: purchased Reaction Biology Corp
Method: as §1

LRRK2 = biological target: T34, LRRK2 (Homo sapiens, UniProt Q5S007); assay: Kinome-wide inhibition profiling; type: biochemical
T34 construct: purchased Reaction Biology Corp
Method: as §1

CAMK2b = biological target: T35, CAMK2b (Homo sapiens, UniProt Q13554); assay: Kinome-wide inhibition profiling; type: biochemical
T35 construct: purchased Reaction Biology Corp
Method: as §1

CDK12/CyclinK = CDK12/CyclinK (Homo sapiens, UniProt Q9NYV4); assay: Kinome-wide inhibition profiling; type: biochemical; parameters: purchased Reaction Biology Corp
Method: as §1

ICK = biological target: T36, ICK (Homo sapiens, UniProt Q9UPZ9); parameters: method as in HMS LINCS database; details: 10 μM, ref HMS LINCS database; cited from earlier work
T36 construct: purchased Reaction Biology Corp

STK36 = tested on: STK36; parameters: method as in HMS LINCS database; details: 10 μM, ref HMS LINCS database; cited from earlier work
TAOK1 = biological target: T37, TAOK1 (Homo sapiens, UniProt Q7L7X3); parameters: method as in HMS LINCS database; details: 10 μM, ref HMS LINCS database; cited from earlier work
T37 construct: purchased Reaction Biology Corp

PCTK1 = tested on: PCTK1; parameters: method as in HMS LINCS database; details: 10 μM, ref HMS LINCS database; cited from earlier work
YSK1 = biological target: T38, YSK1 (Homo sapiens, UniProt O00506); parameters: method as in HMS LINCS database; details: 10 μM, ref HMS LINCS database; cited from earlier work
T38 construct: purchased Reaction Biology Corp

Chain of CDK12/CyclinK (Q9NYV4 whole entry): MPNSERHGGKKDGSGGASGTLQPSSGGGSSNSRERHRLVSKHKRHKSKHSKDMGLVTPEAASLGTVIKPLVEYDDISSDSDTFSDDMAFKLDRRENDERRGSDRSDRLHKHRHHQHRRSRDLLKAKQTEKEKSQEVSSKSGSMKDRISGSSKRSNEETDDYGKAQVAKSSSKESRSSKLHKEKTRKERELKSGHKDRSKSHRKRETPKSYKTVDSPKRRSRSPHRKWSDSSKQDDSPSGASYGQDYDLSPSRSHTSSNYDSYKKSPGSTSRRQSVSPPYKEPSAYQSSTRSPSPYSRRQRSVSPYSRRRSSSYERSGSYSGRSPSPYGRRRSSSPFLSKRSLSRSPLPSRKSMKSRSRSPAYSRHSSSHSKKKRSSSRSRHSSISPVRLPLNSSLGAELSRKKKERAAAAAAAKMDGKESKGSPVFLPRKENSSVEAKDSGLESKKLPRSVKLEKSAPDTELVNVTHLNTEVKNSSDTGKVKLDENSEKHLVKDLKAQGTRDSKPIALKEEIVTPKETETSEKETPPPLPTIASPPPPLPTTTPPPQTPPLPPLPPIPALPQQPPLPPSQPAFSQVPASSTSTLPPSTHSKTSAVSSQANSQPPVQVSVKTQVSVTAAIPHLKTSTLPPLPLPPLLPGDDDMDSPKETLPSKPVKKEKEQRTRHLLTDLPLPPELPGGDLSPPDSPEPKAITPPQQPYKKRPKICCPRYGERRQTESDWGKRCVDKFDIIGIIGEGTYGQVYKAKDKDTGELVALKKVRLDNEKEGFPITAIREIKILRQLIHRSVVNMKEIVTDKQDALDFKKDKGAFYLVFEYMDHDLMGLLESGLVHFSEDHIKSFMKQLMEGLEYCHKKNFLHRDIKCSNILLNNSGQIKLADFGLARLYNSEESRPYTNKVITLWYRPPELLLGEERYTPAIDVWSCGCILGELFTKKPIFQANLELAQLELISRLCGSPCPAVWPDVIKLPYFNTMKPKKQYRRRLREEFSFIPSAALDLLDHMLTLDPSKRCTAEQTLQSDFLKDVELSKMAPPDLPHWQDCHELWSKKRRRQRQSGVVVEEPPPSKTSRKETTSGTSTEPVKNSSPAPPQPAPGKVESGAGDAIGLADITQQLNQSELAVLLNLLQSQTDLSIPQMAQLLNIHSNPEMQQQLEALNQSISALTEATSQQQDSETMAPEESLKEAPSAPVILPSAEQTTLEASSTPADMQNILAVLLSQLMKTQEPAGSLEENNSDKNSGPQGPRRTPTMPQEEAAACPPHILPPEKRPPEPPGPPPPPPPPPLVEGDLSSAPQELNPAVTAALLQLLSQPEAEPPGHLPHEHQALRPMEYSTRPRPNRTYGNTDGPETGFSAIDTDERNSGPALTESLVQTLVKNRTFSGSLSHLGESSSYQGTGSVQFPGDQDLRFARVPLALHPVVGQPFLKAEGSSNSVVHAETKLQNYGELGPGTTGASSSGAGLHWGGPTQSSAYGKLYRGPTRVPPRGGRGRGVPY
Chain of CDK12/CyclinK (O75909 whole entry partner): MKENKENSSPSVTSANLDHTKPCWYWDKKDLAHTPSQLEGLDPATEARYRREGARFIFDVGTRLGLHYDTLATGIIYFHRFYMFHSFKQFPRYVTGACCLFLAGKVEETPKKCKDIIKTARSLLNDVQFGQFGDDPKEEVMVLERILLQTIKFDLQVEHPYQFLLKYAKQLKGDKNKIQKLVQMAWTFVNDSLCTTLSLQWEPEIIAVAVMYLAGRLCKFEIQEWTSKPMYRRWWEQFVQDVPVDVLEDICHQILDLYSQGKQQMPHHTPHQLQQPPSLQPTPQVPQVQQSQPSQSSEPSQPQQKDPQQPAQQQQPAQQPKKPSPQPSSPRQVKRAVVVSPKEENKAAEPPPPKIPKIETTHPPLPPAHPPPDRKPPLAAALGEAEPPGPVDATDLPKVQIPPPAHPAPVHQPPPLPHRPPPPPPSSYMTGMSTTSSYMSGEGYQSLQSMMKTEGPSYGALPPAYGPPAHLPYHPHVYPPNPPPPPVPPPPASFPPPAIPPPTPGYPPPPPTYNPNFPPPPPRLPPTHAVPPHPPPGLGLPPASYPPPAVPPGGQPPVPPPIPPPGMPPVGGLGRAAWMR
T15 sequence (Q00526 whole entry): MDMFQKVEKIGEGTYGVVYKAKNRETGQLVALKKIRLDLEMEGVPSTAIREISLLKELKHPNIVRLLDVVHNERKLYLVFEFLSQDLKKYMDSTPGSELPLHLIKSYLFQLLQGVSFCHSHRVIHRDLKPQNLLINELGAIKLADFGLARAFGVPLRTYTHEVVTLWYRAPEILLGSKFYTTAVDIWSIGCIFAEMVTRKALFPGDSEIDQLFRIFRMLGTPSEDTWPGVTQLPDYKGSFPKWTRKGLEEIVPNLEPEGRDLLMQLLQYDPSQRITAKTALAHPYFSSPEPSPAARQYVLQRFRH
T15 sequence (P24864 whole entry partner): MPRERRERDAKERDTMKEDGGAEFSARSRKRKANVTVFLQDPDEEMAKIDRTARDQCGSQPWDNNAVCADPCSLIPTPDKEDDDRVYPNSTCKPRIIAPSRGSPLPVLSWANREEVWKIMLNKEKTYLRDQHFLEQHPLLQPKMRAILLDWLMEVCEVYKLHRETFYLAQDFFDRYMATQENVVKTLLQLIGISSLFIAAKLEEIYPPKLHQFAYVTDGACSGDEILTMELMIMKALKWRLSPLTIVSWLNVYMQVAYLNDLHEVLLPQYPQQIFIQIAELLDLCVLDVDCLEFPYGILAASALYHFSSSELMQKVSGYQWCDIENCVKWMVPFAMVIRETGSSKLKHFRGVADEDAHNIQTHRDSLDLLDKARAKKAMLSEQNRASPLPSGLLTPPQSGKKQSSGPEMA
T17 sequence (P49760 whole entry): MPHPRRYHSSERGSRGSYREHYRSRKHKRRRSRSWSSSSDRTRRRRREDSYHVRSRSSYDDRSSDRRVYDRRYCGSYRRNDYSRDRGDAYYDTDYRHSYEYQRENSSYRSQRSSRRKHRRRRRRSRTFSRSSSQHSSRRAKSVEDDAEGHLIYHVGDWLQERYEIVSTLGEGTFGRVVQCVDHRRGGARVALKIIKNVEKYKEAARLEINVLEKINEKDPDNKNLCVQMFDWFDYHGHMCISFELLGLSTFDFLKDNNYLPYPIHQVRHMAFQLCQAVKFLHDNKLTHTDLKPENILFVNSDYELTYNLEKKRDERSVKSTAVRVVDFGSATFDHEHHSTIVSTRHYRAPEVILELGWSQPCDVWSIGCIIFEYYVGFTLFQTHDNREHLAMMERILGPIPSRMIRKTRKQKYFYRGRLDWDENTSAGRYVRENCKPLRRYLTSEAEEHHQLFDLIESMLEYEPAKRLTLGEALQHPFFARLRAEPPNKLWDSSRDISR
T8 sequence (O00238 14-502): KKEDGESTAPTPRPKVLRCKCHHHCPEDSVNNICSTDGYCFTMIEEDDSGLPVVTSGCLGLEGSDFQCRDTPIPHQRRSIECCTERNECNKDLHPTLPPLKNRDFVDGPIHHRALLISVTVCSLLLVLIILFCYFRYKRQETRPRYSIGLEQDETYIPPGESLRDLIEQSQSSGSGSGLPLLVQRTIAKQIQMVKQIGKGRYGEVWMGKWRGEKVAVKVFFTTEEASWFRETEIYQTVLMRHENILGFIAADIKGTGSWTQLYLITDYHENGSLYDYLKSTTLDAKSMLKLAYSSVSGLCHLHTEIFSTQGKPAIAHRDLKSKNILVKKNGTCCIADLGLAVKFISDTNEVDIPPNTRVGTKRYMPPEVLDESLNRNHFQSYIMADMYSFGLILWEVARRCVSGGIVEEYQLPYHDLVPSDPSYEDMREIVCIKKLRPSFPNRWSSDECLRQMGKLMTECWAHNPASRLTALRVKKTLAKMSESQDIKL
T5 sequence (Q13976 1-686 isoform Q13976-2): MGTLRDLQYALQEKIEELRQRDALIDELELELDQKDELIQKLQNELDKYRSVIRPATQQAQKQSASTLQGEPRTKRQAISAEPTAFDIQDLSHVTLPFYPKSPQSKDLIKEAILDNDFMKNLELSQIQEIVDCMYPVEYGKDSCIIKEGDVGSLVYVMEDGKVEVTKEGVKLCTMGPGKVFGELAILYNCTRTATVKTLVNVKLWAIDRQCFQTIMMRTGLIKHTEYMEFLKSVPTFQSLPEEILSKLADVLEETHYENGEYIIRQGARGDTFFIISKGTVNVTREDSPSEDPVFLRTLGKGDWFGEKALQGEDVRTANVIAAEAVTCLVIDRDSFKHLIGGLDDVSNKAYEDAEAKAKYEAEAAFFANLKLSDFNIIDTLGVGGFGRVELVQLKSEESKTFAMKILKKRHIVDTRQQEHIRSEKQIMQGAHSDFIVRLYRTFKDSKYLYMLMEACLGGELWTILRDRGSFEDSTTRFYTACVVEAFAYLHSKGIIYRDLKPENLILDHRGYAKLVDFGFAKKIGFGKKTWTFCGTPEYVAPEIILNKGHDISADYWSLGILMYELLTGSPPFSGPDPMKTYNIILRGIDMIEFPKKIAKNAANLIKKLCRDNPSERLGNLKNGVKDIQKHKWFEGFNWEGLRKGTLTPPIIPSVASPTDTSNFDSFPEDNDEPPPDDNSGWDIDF
T31 sequence (O14965 whole entry): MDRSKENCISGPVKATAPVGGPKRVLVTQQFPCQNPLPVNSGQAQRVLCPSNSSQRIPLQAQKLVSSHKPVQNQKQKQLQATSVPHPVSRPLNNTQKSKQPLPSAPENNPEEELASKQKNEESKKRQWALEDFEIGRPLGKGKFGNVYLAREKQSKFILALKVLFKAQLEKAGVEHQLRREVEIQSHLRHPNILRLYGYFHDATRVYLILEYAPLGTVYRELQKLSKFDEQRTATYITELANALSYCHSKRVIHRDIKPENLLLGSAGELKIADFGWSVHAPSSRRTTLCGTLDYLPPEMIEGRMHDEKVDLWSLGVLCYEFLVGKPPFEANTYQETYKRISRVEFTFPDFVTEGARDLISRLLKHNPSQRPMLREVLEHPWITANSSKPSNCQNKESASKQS

**Q.** With `CCn1cnc2c(NCc3ccc(-c4ccccn4)nc3)nc(-c3ccc(N)nc3)nc21` [Compound 30d, N-([2,2′-Bipyridin]-5-ylmethyl)-2-(6-aminopyridin-3-yl)-9-ethyl-9H-purin-6-amine] as the compound, how does the remaining activity at 10 µM (MKK6) read?
**A.** The remaining activity at 10 µM was 95.4%.

**Q.** And the remaining activity at 10 µM (YSK4)?
**A.** The remaining activity at 10 µM was 96.8%.

**Q.** And the remaining activity at 10 µM (MAP3K8)?
**A.** Its remaining activity at 10 µM is 102%.

**Q.** What about the remaining activity at 10 µM (PAK6) of the same compound?
**A.** Its remaining activity at 10 µM is 57.2%.

**Q.** And the remaining activity at 10 µM (PRKG1b)?
**A.** The remaining activity at 10 µM was 97.6%.

**Q.** What about the remaining activity at 10 µM [1] of the same compound?
**A.** The remaining activity at 10 µM was 115%.

**Q.** What about the remaining activity at 10 µM (PBK/TOPK) of the same compound?
**A.** The remaining activity at 10 µM was 93.5%.

**Q.** And the remaining activity at 10 µM (BMPR1B)?
**A.** The remaining activity at 10 µM was 115%.

**Q.** What about the remaining activity at 10 µM (QSK) of the same compound?
**A.** The remaining activity at 10 µM was 30.2%.

**Q.** What about the remaining activity at 10 µM (EPHB3) of the same compound?
**A.** The remaining activity at 10 µM was 66%.

**Q.** What about the remaining activity at 10 µM (PRKCD) of the same compound?
**A.** Its remaining activity at 10 µM is 95.2%.

**Q.** And the remaining activity at 10 µM (TGFBR2)?
**A.** Its remaining activity at 10 µM is 94.5%.

**Q.** And the remaining activity at 10 µM (CHEK2)?
**A.** The remaining activity at 10 µM was 7.4%.

**Q.** And the remaining activity at 10 µM (RAF1)?
**A.** Its remaining activity at 10 µM is 68.6%.

**Q.** What about the inhibition at 10 µM (CDK3/cyclinE) of the same compound?
**A.** The inhibition at 10 µM was > 95%.

**Q.** And the remaining activity at 10 µM (CDK3/cyclinE)?
**A.** The remaining activity at 10 µM was 1%.

**Q.** And the remaining activity at 10 µM (NEK1)?
**A.** Its remaining activity at 10 µM is 92.3%.

**Q.** What about the remaining activity at 10 µM (CLK2) of the same compound?
**A.** Its remaining activity at 10 µM is 11.7%.

**Q.** And the remaining activity at 10 µM (MERTK)?
**A.** Its remaining activity at 10 µM is 71%.

**Q.** And the remaining activity at 10 µM (MASTL)?
**A.** The remaining activity at 10 µM was 103%.

**Q.** What about the remaining activity at 10 µM (PRKCG) of the same compound?
**A.** The remaining activity at 10 µM was 49.6%.

**Q.** What about the remaining activity at 10 µM (MYLK3) of the same compound?
**A.** The remaining activity at 10 µM was 105%.

**Q.** And the remaining activity at 10 µM (EGFR)?
**A.** Its remaining activity at 10 µM is 83.7%.

**Q.** And the remaining activity at 10 µM (ZAK)?
**A.** The remaining activity at 10 µM was 97.5%.

**Q.** And the remaining activity at 10 µM (PLK4)?
**A.** Its remaining activity at 10 µM is 83.4%.

**Q.** What about the remaining activity at 10 µM (CDK4/cyclinD3) of the same compound?
**A.** The remaining activity at 10 µM was 28.6%.

**Q.** What about the remaining activity at 10 µM (EPHB4) of the same compound?
**A.** The remaining activity at 10 µM was 23.2%.

**Q.** What about the remaining activity at 10 µM (MAPKAPK3) of the same compound?
**A.** The remaining activity at 10 µM was 100%.

**Q.** And the remaining activity at 10 µM (ULK3)?
**A.** Its remaining activity at 10 µM is 91.8%.

**Q.** What about the remaining activity at 10 µM (MLK2) of the same compound?
**A.** The remaining activity at 10 µM was 62.3%.

**Q.** What about the remaining activity at 10 µM (CSNK1G3) of the same compound?
**A.** The remaining activity at 10 µM was 24.4%.

**Q.** And the remaining activity at 10 µM (AurkA)?
**A.** The remaining activity at 10 µM was 33.4%.

**Q.** And the remaining activity at 10 µM (TLK1)?
**A.** Its remaining activity at 10 µM is 67.8%.

**Q.** And the remaining activity at 10 µM (ITK)?
**A.** The remaining activity at 10 µM was 81.7%.

**Q.** And the remaining activity at 10 µM (LRRK2)?
**A.** The remaining activity at 10 µM was 17.7%.

**Q.** And the remaining activity at 10 µM (CAMK2b)?
**A.** Its remaining activity at 10 µM is 65.2%.

**Q.** What about the inhibition at 10 µM (CDK12/CyclinK) of the same compound?
**A.** Its inhibition at 10 µM is > 95%.

**Q.** What about the remaining activity at 10 µM (CDK12/CyclinK) of the same compound?
**A.** Its remaining activity at 10 µM is 1.1%.

**Q.** Which results are given for `CCc1cnn2c(NCc3ccc[n+]([O-])c3)cc(N3CCCC[C@H]3CCO)nc12` [Dinaciclib]?
**A.** % control (ICK): 0.9%; % control (STK36): 7.8%; % control (TAOK1): 3.1%; % control (PCTK1): 0.3%; % control (YSK1): 9.2%
